Experimental data: patent US9611248B2, “Chemical compounds” (Syngenta Participations AG, priority 2013, dated 2017)

System: a variety of test species
Experiment: Post-emergence herbicidal activity
Type: in vivo
Set-up: key to ABUTH (Abutilon theophrasti) damage score / AMARE (Amaranthus retroflexus) damage score / ALOMY (Alopecurus myosuroides) damage score / ECHCG (Echinochloa crus-galli) damage score / ZEAMX (Zea mays) damage score / SOLNI (Solanum nigrum) damage score: 0 = no damage to plant, 5 = total damage to plant
Settings: rate 1000 g/ha, evaluated after 13 days
Experimental: Seeds of a variety of test species were sown in standard soil in pots. After 8 days cultivation (post-emergence) under controlled conditions in a glasshouse (at 24/16° C., day/night; 14 hours light; 65% humidity), the plants were sprayed with an aqueous spray solution derived from the formulation of the technical active ingredient in acetone/water (50:50) solution containing 0.5% Tween 20 (polyoxyethelyene sorbitan monolaurate, CAS RN 9005-64-5). The test plants were then grown in a glasshouse under controlled conditions (at 24/16° C., day/night; 14 hours light; 65% humidity) and watered twice daily. After 13 days, the test was evaluated (5=total damage to plant; 0=no damage to plant, NC=not captured).

Row | Structure (SMILES) | ABUTH (Abutilon theophrasti) damage score | ALOMY (Alopecurus myosuroides) damage score | AMARE (Amaranthus retroflexus) damage score | ECHCG (Echinochloa crus-galli) damage score | SETFA (Setaria faberi) damage score | ZEAMX (Zea mays) damage score | SOLNI (Solanum nigrum) damage score
1 | COC1=C(C)C(=O)N(c2cc(C(C)(C)C)c(OC)nn2)C1O (stereo not drawn) [BD10] | 5 | 5 | 5 | 5 | 5 | 4 | 
2 | COC1=C(C)C(=O)N(c2cc(C)c(-c3ccccc3OC)cn2)C1O (stereo not drawn) [AD110] | 5 | 2 | 5 | 1 | 2 | 0 | 
3 | COc1nnc(N2C(=O)C(C)=C(Br)C2O)cc1C (stereo not drawn) [BB1] | 1 | 0 | 0 | 1 | 2 | 0 | 
4 | CCc1cc(N2C(=O)C(C)=C(OC)C2O)ncc1C=C(C)C (stereo not drawn) [AD71] | 4 | 2 | 5 | 3 | 5 | 2 | 
5 | COC1=C(C)C(=O)N(c2cc(C(F)(F)F)c(C(C)=O)cn2)C1O (stereo not drawn) [AD2, 1-[5-acetyl-4-(trifluoromethyl)-2-pyridyl]-2-hydroxy-3-methoxy-4-methyl-2H-pyrrol-5-one] | 5 | 5 | 5 | 5 | 5 | 2 | 
6 | CC1=C(OCC(F)(F)F)C(O)N(c2cc(C(F)(F)F)ccn2)C1=O (stereo not drawn) [AD44, 2-hydroxy-4-methyl-3-(2,2,2-trifluoroethoxy)-1-[4-(trifluoromethyl)-2-pyridyl]-2H-pyrrol-5-one] | 5 | 3 | 5 | 4 | 5 | 1 | 
7 | COC1=C(C)C(=O)N(c2cc(C)c(-c3ccc(F)cc3F)cn2)C1O (stereo not drawn) [AD122] | 5 | 3 | 5 | 4 | 4 | 0 | 
8 | CCOC(=O)c1cnc(N2C(=O)C(C)=C(OC)C2O)cc1Cl (stereo not drawn) [AD68] | 3 | 1 | 5 | 4 | 5 | 1 | 
9 | COC1=C(C)C(=O)N(c2cc(C(F)(F)F)c(-c3ccc(S(C)(=O)=O)cc3)cn2)C1O (stereo not drawn) [AD125] | 4 | 4 | 5 | 4 | 4 | 1 | 
10 | COC1=C(C)C(=O)N(c2ccc(OC(F)(F)F)cn2)C1O (stereo not drawn) [AD47] | 5 | 3 | 5 | 3 | 4 | 0 | 
11 | COC1=C(C)C(=O)N(c2cc(C(F)(F)F)c(Oc3ccccc3)cn2)C1O (stereo not drawn) [AD88] | 5 | 3 | 5 | 4 | 5 | 1 | 
12 | CC1=C(Br)C(O)N(c2cc(C(F)(F)F)ccn2)C1=O (stereo not drawn) [AB1] | 3 | 2 | 5 | 3 | 4 | 0 | 
13 | CC1=C(Cl)C(O)N(c2cc(C(F)(F)F)ccn2)C1=O (stereo not drawn) [AA35] |  | 2 | 5 | 4 | 4 | 0 | 5
14 | COC1=C(C)C(=O)N(c2cc(C(C)(C)C)c(Cl)nn2)C1O (stereo not drawn) [BD2] | 5 | 4 | 5 | 5 | 5 | 2 | 
15 | CCCOc1cnc(N2C(=O)C(C)=C(OC)C2O)cc1C(F)(F)F (stereo not drawn) [AD72] | 5 | 5 | 5 | 5 | 5 | 2 | 
16 | COC1=C(C)C(=O)N(c2cc(C(F)(F)F)c(/C(C)=C\C#N)cn2)C1O (stereo not drawn) [AD58, (Z)-3-[6-(2-hydroxy-3-methoxy-4-methyl-5-oxo-2H-pyrrol-1-yl)-4-(trifluoromethyl)-3-pyridyl]but-2-enenitrile] | 5 | 4 | 5 | 5 | 5 | 2 | 
17 | COC1=C(C)C(=O)N(c2cc(C)c(-c3ccc(OC)cc3)cn2)C1O (stereo not drawn) [AD115] | 5 | 2 | 5 | 1 | 1 | 1 | 
18 | COC1=C(C)C(=O)N(c2ccc(Cl)nn2)C1O (stereo not drawn) [BD3] | 1 | 1 | 2 | 1 | 2 | 0 | 
19 | COC1=C(C)C(=O)N(c2cc(C(F)(F)F)c(-c3ccc(C)c([N+](=O)[O-])c3)cn2)C1O (stereo not drawn) [AD127] | 2 | 1 | 5 | 4 | 4 | 4 | 
20 | COC1=C(C)C(=O)N(c2cc(C(F)(F)F)c(SCc3ccccc3)cn2)C1O (stereo not drawn) [AD93] | 3 | 2 | 4 | 3 | 4 | 0 | 
21 | COC1=C(C)C(=O)N(c2cc(C(F)(F)F)c(-c3cccc(F)c3)cn2)C1O (stereo not drawn) [AD133] | 5 | 2 | 5 | 4 | 4 | 3 | 
22 | COC1=C(Cl)C(O)N(c2cc(C(C)(C)C)ccn2)C1=O (stereo not drawn) [AF1] | 5 | 2 | 5 | 4 | 4 | 1 | 
23 | CC1=C(Cl)C(O)N(c2cc(C(F)(F)F)c(C(=O)OC(C)(C)C)cn2)C1=O (stereo not drawn) [AA45] | 2 | 2 | 3 | 1 | 2 | 1 | 
